Reference: ChEMBL document CHEMBL1137144, “Synthesis and biological evaluation of novel 4"-alkoxy avermectin derivatives” (2004)
In brackets after ≈: the same amount, converted by molar mass.

Tests used:
[1] = tested on: Caenorhabditis elegans; assay: Minimum inhibitory concentration for growth inhibition of Caenorhabditis elegans (free living nematode) in a microplate assay; assay type: functional
[2] = tested on: Artemia salina; assay: Minimum inhibitory concentration for growth inhibition of Artemia salina(brine shrimp) in a microplate assay; assay type: functional

Row | SMILES | MIC [1] | MIC [2]
1 | CCC(C)[C@H]1O[C@]2(C=C[C@@H]1C)C[C@@H]1C[C@@H](C/C=C(\C)[C@@H](O[C@H]3C[C@H](OC)[C@@H](OCC(=O)O)[C@H](C)O3)[C@@H](C)/C=C/C=C3\CO[C@@H]4[C@H](O)C(C)=CC(C(=O)O1)C34O)O2 (stereo not given in full) | 10 ng/mL (≈ 12.7 nM) | 2 ng/mL (≈ 2.54 nM)
2 | CC[C@H](C)[C@H]1O[C@]2(C=C[C@@H]1C)C[C@@H]1C[C@@H](C/C=C(\C)[C@@H](O[C@H]3C[C@H](OC)[C@@H](O[C@H]4C[C@H](OC)[C@@H](O)[C@H](C)O4)[C@H](C)O3)[C@@H](C)/C=C/C=C3\CO[C@@H]4[C@H](O)C(C)=C[C@@H](C(=O)O1)[C@]34O)O2 [ABAMECTIN COMPONENT B1A] | 2 ng/mL (≈ 2.29 nM) | 0.5 ng/mL (≈ 0.573 nM)
3 | CCC(C)[C@H]1O[C@]2(C=C[C@@H]1C)C[C@@H]1C[C@@H](C/C=C(\C)C(O[C@H]3C[C@H](OC)C(O[C@H]4C[C@H](OC)[C@@H](OCCO)[C@H](C)O4)[C@H](C)O3)[C@@H](C)/C=C/C=C3\CO[C@@H]4[C@H](O)C(C)=CC(C(=O)O1)C34O)O2 (stereo not given in full) | 10 ng/mL (≈ 10.9 nM) | 2 ng/mL (≈ 2.18 nM)
4 | CCC(C)[C@H]1O[C@]2(C=C[C@@H]1C)C[C@@H]1C[C@@H](C/C=C(\C)C(O[C@H]3C[C@H](OC)C(O[C@H]4C[C@H](OC)[C@@H](OCCN5CCOCC5)[C@H](C)O4)[C@H](C)O3)[C@@H](C)/C=C/C=C3\CO[C@@H]4[C@H](O)C(C)=CC(C(=O)O1)C34O)O2 (stereo not given in full) | 10 ng/mL (≈ 10.1 nM) | 2 ng/mL (≈ 2.03 nM)
5 | CCC(C)[C@H]1O[C@]2(C=C[C@@H]1C)C[C@@H]1C[C@@H](C/C=C(\C)C(O[C@H]3C[C@H](OC)C(O[C@H]4C[C@H](OC)[C@@H](OCCN=[N+]=[N-])[C@H](C)O4)[C@H](C)O3)[C@@H](C)/C=C/C=C3\CO[C@@H]4[C@H](O)C(C)=CC(C(=O)O1)C34O)O2 (stereo not given in full) | 10 ng/mL (≈ 10.6 nM) | 0.5 ng/mL (≈ 0.531 nM)
6 | CCC(C)[C@H]1O[C@]2(C=C[C@@H]1C)C[C@@H]1C[C@@H](C/C=C(\C)C(O[C@H]3C[C@H](OC)C(O[C@H]4C[C@H](OC)[C@@H](OCCN)[C@H](C)O4)[C@H](C)O3)[C@@H](C)/C=C/C=C3\CO[C@@H]4[C@H](O)C(C)=CC(C(=O)O1)C34O)O2 (stereo not given in full) | 50 ng/mL (≈ 54.6 nM) | 10 ng/mL (≈ 10.9 nM)
7 | CCC(C)[C@H]1O[C@]2(CC[C@@H]1C)C[C@@H]1C[C@@H](C/C=C(\C)[C@@H](O[C@H]3C[C@H](OC)[C@@H](OCC(=O)O)[C@H](C)O3)[C@@H](C)/C=C/C=C3\CO[C@@H]4[C@H](O)C(C)=CC(C(=O)O1)C34O)O2 (stereo not given in full) | 10 ng/mL (≈ 12.7 nM) | 10 ng/mL (≈ 12.7 nM)
8 | CCC(C)[C@H]1O[C@]2(C=C[C@@H]1C)C[C@@H]1C[C@@H](C/C=C(\C)C(O[C@H]3C[C@H](OC)C(O[C@H]4C[C@H](OC)[C@@H](OCCNC(C)=O)[C@H](C)O4)[C@H](C)O3)[C@@H](C)/C=C/C=C3\CO[C@@H]4[C@H](O)C(C)=CC(C(=O)O1)C34O)O2 (stereo not given in full) | 10 ng/mL (≈ 10.4 nM) | 10 ng/mL (≈ 10.4 nM)
9 | CCC(C)[C@H]1O[C@]2(C=C[C@@H]1C)C[C@@H]1C[C@@H](C/C=C(\C)C(O[C@H]3C[C@H](OC)C(O[C@H]4C[C@H](OC)[C@@H](OCCN5CCCCC5)[C@H](C)O4)[C@H](C)O3)[C@@H](C)/C=C/C=C3\CO[C@@H]4[C@H](O)C(C)=CC(C(=O)O1)C34O)O2 (stereo not given in full) | 50 ng/mL (≈ 50.8 nM) | 10 ng/mL (≈ 10.2 nM)
10 | CCOC(=O)CO[C@H]1[C@H](C)O[C@@H](OC2[C@H](C)O[C@@H](OC3/C(C)=C/C[C@@H]4C[C@@H](C[C@]5(CC[C@H](C)[C@@H](C(C)CC)O5)O4)OC(=O)C4C=C(C)[C@@H](O)[C@H]5OC/C(=C\C=C\[C@@H]3C)C45O)C[C@@H]2OC)C[C@@H]1OC (stereo not given in full) | 2 ng/mL (≈ 2.08 nM) | 0.5 ng/mL (≈ 0.52 nM)
11 | CCC(C)[C@H]1O[C@]2(C=C[C@@H]1C)C[C@@H]1C[C@@H](C/C=C(\C)C(O[C@H]3C[C@H](OC)C(O[C@H]4C[C@H](OC)[C@@H](OC/C=N/O)[C@H](C)O4)[C@H](C)O3)[C@@H](C)/C=C/C=C3\CO[C@@H]4[C@H](O)C(C)=CC(C(=O)O1)C34O)O2 (stereo not given in full) | 2 ng/mL (≈ 2.15 nM) | 2 ng/mL (≈ 2.15 nM)
12 | CCOC(=O)CO[C@H]1[C@H](C)OC(O[C@H]2[C@H](C)O[C@@H](OC3/C(C)=C/C[C@@H]4C[C@@H](C[C@]5(C=C[C@H](C)[C@@H](C(C)CC)O5)O4)OC(=O)[C@@H]4C=C(C)[C@@H](O)[C@H]5OC/C(=C\C=C\[C@@H]3C)[C@]54O)C[C@@H]2OC)C[C@@H]1OC (stereo not given in full) | 2 ng/mL (≈ 2.09 nM) | 0.5 ng/mL (≈ 0.521 nM)
13 | CCC(C)[C@H]1O[C@]2(C=C[C@@H]1C)C[C@@H]1C[C@@H](C/C=C(\C)C(O[C@H]3C[C@H](OC)C(O[C@H]4C[C@H](OC)[C@@H](OCCN5CCNCC5)[C@H](C)O4)[C@H](C)O3)[C@@H](C)/C=C/C=C3\CO[C@@H]4[C@H](O)C(C)=CC(C(=O)O1)C34O)O2 (stereo not given in full) | 50 ng/mL (≈ 50.7 nM) | 10 ng/mL (≈ 10.1 nM)
14 | CCOC(=O)CO[C@H]1[C@H](C)O[C@@H](OC2[C@H](C)O[C@@H](OC3/C(C)=C/C[C@@H]4C[C@@H](C[C@]5(CC(=O)[C@H](C)[C@@H](C(C)CC)O5)O4)OC(=O)C4C=C(C)[C@@H](O)[C@H]5OC/C(=C\C=C\[C@@H]3C)C45O)C[C@@H]2OC)C[C@@H]1OC (stereo not given in full) | 10 ng/mL (≈ 10.3 nM) | 2 ng/mL (≈ 2.05 nM)
15 | CCC(C)[C@H]1O[C@]2(C=C[C@@H]1C)C[C@@H]1C[C@@H](C/C=C(\C)[C@@H](OC3C[C@H](OC)[C@@H](OC4C[C@H](OC)C(OCC(=O)N5CCCCC5)[C@H](C)O4)[C@H](C)O3)[C@@H](C)/C=C/C=C3\CO[C@@H]4[C@H](O)C(C)=C[C@@H](C(=O)O1)[C@]34O)O2 (stereo not given in full) | 10 ng/mL (≈ 10 nM) | 10 ng/mL (≈ 10 nM)
16 | CCC(C)[C@H]1O[C@]2(C=C[C@@H]1C)C[C@@H]1C[C@@H](C/C=C(\C)C(O[C@H]3C[C@H](OC)C(O[C@H]4C[C@H](OC)[C@@H](OCCBr)[C@H](C)O4)[C@H](C)O3)[C@@H](C)/C=C/C=C3\CO[C@@H]4[C@H](O)C(C)=CC(C(=O)O1)C34O)O2 (stereo not given in full) | 10 ng/mL (≈ 10.2 nM) | 2 ng/mL (≈ 2.04 nM)

Continued, in another order:

Row | MIC [1] | SMILES | MIC [2]
17 | 2 ng/mL (≈ 2.29 nM) | CCC(C)[C@H]1O[C@]2(CC[C@@H]1C)C[C@@H]1C[C@@H](C/C=C(\C)[C@@H](OC3C[C@H](OC)[C@@H](OC4C[C@H](OC)[C@@H](O)[C@H](C)O4)[C@H](C)O3)[C@@H](C)/C=C/C=C3\CO[C@@H]4[C@H](O)C(C)=C[C@@H](C(=O)O1)[C@]34O)O2 (stereo not given in full) | 2 ng/mL (≈ 2.29 nM)
18 | 2 ng/mL (≈ 2.12 nM) | CCC(C)[C@H]1O[C@]2(C=C[C@@H]1C)C[C@@H]1C[C@@H](C/C=C(\C)C(O[C@H]3C[C@H](OC)C(O[C@H]4C[C@H](OC)[C@@H](OC/C=N/OC)[C@H](C)O4)[C@H](C)O3)[C@@H](C)/C=C/C=C3\CO[C@@H]4[C@H](O)C(C)=CC(C(=O)O1)C34O)O2 (stereo not given in full) | 0.5 ng/mL (≈ 0.53 nM)
19 | 2 ng/mL (≈ 1.99 nM) | CCOC(=O)CO[C@H]1[C@H](C)O[C@@H](OC2[C@H](C)O[C@@H](OC3/C(C)=C/C[C@@H]4C[C@@H](C[C@]5(C/C(=N\OC)[C@H](C)[C@@H](C(C)CC)O5)O4)OC(=O)C4C=C(C)[C@@H](O)[C@H]5OC/C(=C\C=C\[C@@H]3C)C45O)C[C@@H]2OC)C[C@@H]1OC (stereo not given in full) | 2 ng/mL (≈ 1.99 nM)
20 | 0.5 ng/mL (≈ 0.536 nM) | CCC(C)[C@H]1O[C@]2(CC[C@@H]1C)C[C@@H]1C[C@@H](C/C=C(\C)C(O[C@H]3C[C@H](OC)C(O[C@H]4C[C@H](OC)[C@@H](OCC(=O)O)[C@H](C)O4)[C@H](C)O3)[C@@H](C)/C=C/C=C3\CO[C@@H]4[C@H](O)C(C)=CC(C(=O)O1)C34O)O2 (stereo not given in full) | 0.1 ng/mL (≈ 0.107 nM)
21 | 2 ng/mL (≈ 2.45 nM) | CCOC(=O)CO[C@H]1[C@H](C)O[C@@H](O[C@@H]2/C(C)=C/C[C@@H]3C[C@@H](C[C@]4(CC[C@H](C)[C@@H](C(C)CC)O4)O3)OC(=O)C3C=C(C)[C@@H](O)[C@H]4OC/C(=C\C=C\[C@@H]2C)C34O)C[C@@H]1OC (stereo not given in full) | 0.5 ng/mL (≈ 0.612 nM)
22 | 2 ng/mL (≈ 2.05 nM) | CCOC(=O)CO[C@H]1[C@H](C)O[C@@H](OC2[C@H](C)O[C@@H](OC3/C(C)=C/C[C@@H]4C[C@@H](C[C@]5(CC(O)[C@H](C)[C@@H](C(C)CC)O5)O4)OC(=O)C4C=C(C)[C@@H](O)[C@H]5OC/C(=C\C=C\[C@@H]3C)C45O)C[C@@H]2OC)C[C@@H]1OC (stereo not given in full) | 0.5 ng/mL (≈ 0.512 nM)
23 | 2 ng/mL (≈ 2.45 nM) | CCOC(=O)CO[C@H]1[C@H](C)O[C@@H](O[C@@H]2/C(C)=C/C[C@@H]3C[C@@H](C[C@]4(C=C[C@H](C)[C@@H](C(C)CC)O4)O3)OC(=O)C3C=C(C)[C@@H](O)[C@H]4OC/C(=C\C=C\[C@@H]2C)C34O)C[C@@H]1OC (stereo not given in full) | 0.5 ng/mL (≈ 0.613 nM)
24 | 0.1 ng/mL (≈ 0.107 nM) | CCC(C)[C@H]1O[C@]2(C=C[C@@H]1C)C[C@@H]1C[C@@H](C/C=C(\C)[C@@H](OC3C[C@H](OC)[C@@H](OC4C[C@H](OC)[C@@H](OCC(=O)O)[C@H](C)O4)[C@H](C)O3)[C@@H](C)/C=C/C=C3\CO[C@@H]4[C@H](O)C(C)=C[C@@H](C(=O)O1)[C@]34O)O2 (stereo not given in full) | 0.02 ng/mL (≈ 0.0215 nM)
25 | 0.5 ng/mL (≈ 0.5 nM) | CCC(C)[C@H]1O[C@]2(C=C[C@@H]1C)C[C@@H]1C[C@@H](C/C=C(\C)[C@@H](OC3C[C@H](OC)[C@@H](OC4C[C@H](OC)[C@@H](OCC(=O)N5CCOCC5)[C@H](C)O4)[C@H](C)O3)[C@@H](C)/C=C/C=C3\CO[C@@H]4[C@H](O)C(C)=C[C@@H](C(=O)O1)[C@]34O)O2 (stereo not given in full) | 0.5 ng/mL (≈ 0.5 nM)
